Laboratory results reported in US9676714B2, “Sulfonylindole derivatives and method for preparing the same” (Daewoong Pharmaceutical Co., Ltd., priority 2013, dated 2017).
Structures can show the parent of a compound that is named as a salt.

Target: T1, proton pump (H+/K+-ATPase) (Sus scrofa, UniProt P19156)
T1 construct: Gastric vesicles were prepared from hog stomach via centrifugal separation; from tissue; host or cells: hog stomach (gastric vesicles, method of Rabon et al. 1988)
Assay: Measurement of inhibitory effects on proton pump (H+/K+-ATPase) activities
Format: biochemical
Conditions: hog gastric vesicles, K+-specific H+/K+-ATPase activity, Tris-HCl buffer pH 7.4, 37° C. for 40 minutes, malachite green Pi readout
How it was run: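 Hog gastric vesicles in 60 mmol/l Tris-HCl pH 7.4 with 0.5% DMSO were treated with compounds at room temperature; reaction was started with 10 μl of 10 mmol/l ATP stock. Released Pi was read at 570 nm, K+-specific activity taken as the ±K+ difference. IC50 from 4-parameter logistic fit.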

T1 sequence (P19156 whole entry): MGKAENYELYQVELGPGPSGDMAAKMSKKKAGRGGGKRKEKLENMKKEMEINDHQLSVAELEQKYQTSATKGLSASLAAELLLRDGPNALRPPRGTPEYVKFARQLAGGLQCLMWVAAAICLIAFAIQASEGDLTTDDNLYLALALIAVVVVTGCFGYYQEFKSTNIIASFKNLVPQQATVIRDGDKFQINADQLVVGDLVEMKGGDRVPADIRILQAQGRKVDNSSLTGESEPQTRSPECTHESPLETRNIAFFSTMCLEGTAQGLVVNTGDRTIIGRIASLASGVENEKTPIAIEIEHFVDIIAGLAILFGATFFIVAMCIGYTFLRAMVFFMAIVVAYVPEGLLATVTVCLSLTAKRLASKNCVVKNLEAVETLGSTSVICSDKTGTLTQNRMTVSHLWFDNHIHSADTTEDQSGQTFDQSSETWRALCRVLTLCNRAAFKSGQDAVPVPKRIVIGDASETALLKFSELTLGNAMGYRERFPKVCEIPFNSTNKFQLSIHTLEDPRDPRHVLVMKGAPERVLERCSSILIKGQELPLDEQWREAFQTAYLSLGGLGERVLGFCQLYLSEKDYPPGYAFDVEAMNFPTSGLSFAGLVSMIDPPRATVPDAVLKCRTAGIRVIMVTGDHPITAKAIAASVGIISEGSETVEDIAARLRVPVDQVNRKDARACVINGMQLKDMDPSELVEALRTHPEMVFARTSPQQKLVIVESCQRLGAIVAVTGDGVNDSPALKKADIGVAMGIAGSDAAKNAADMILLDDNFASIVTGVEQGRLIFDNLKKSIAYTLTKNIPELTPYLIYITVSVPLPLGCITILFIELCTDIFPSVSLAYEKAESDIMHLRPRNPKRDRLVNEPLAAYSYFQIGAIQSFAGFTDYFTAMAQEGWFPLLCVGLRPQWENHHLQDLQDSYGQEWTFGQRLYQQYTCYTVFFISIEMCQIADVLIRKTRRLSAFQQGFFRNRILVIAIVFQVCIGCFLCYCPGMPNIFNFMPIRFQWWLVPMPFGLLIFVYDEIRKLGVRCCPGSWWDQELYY
T1 sequence (P18434 whole entry partner): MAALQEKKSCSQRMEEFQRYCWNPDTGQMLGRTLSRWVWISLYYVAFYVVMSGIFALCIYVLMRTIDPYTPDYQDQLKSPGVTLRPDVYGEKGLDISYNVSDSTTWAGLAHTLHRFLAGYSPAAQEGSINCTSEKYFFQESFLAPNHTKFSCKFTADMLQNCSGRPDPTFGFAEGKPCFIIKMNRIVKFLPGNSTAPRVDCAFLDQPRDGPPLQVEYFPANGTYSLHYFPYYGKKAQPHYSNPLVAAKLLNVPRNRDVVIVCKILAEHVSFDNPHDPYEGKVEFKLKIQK

| Compound | IC50 [µM] |
| --- | --- |
| CNCc1cn(S(=O)(=O)c2cccnc2)c2cc(Nc3ccc(C(F)(F)F)nc3C)ccc12 [Example 124, N-(2-methyl-6-(trifluoromethyl)pyridin-3-yl)-3-((methylamino)methyl)-1-(pyridin-3-ylsulfonyl)-1H-indol-6-amine hydrochloride] | 0.58 |
| CNCc1cn(S(=O)(=O)c2cccnc2)c2cc(Nc3cc(Cl)cnc3C)ccc12 [Example 126, N-(5-chloro-2-methylpyridin-3-yl)-3-((methylamino)methyl)-1-(pyridin-3-ylsulfonyl)-1H-indol-6-amine hydrochloride] | 0.51 |
| CNCc1cn(S(=O)(=O)c2cccnc2)c2cc(Nc3c(C)ccnc3Cl)ccc12 [Example 127, N-(2-chloro-4-methylpyridin-3-yl)-3-((methylamino)methyl)-1-(pyridin-3-ylsulfonyl)-1H-indol-6-amine hydrochloride] | 0.64 |
| CNCc1cn(S(=O)(=O)c2cccnc2)c2cc(Nc3ccncc3Cl)ccc12 [Example 128, N-(3-chloropyridin-4-yl)-3-((methylamino)methyl)-1-(pyridin-3-ylsulfonyl)-1H-indol-6-amine hydrochloride] | 1.22 |
| CNCc1cn(S(=O)(=O)c2cccnc2)c2cc(Nc3ccncc3C(F)(F)F)ccc12 [Example 129, 3-((methylamino)methyl)-1-(pyridin-3-ylsulfonyl)-N-(3-(trifluoromethyl)pyridin-4-yl)-1H-indol-6-amine hydrochloride] | 10.2 |
| CNCc1cn(S(=O)(=O)c2cccnc2)c2cc(Nc3ccnc(OC)c3Cl)ccc12 [Example 130, N-(3-chloro-2-methoxypyridin-4-yl)-3-((methylamino)methyl)-1-(pyridin-3-ylsulfonyl)-1H-indol-6-amine hydrochloride] | 20 |
| CNCc1cn(S(=O)(=O)c2cccnc2)c2cc(Nc3ccnc(OC)c3Br)ccc12 [Example 131, N-(3-bromo-2-methoxypyridin-4-yl)-3-((methylamino)methyl)-1-(pyridin-3-ylsulfonyl)-1H-indol-6-amine hydrochloride] | 0.78 |
| CNCc1cn(S(=O)(=O)c2cccnc2)c2cc(Nc3ccnc(Cl)c3Cl)ccc12 [Example 132, N-(2,3-dichloropyridin-4-yl)-3-((methylamino)methyl)-1-(pyridin-3-ylsulfonyl)-1H-indol-6-amine hydrochloride] | 0.73 |
| CNCc1cn(S(=O)(=O)c2cccnc2)c2cc(Nc3c(F)cnc(F)c3F)ccc12 [Example 134, 3-((methylamino)methyl)-1-(pyridin-3-ylsulfonyl)-N-(2,3,5-trifluoropyridin-4-yl)-1H-indol-6-amine hydrochloride] | 2.05 |
| CNCc1cn(S(=O)(=O)c2cccnc2)c2cc(Nc3ccc4ncccc4c3)ccc12 [Example 135, N-3-((methylamino)methyl)-1-(pyridin-3-ylsulfonyl)-1H-indol-6-yl)quinolin-6-amine hydrochloride] | 3 |
| CNCc1cn(S(=O)(=O)c2cccc(F)c2)c2cc(Nc3ccc(C)cc3F)ccc12 [Example 136, N-(2-fluoro-4-methylphenyl)-1-((3-fluorophenyl)sulfonyl)-3-((methylamino)methyl)-1H-indol-6-amine hydrochloride] | 0.71 |
| CNCc1cn(S(=O)(=O)c2cccc(Cl)c2)c2cc(Nc3ccc(Cl)cc3F)ccc12 [Example 150, N-(4-chloro-2-fluorophenyl)-1-((3-chlorophenyl)sulfonyl)-3-((methylamino)methyl)-1H-indol-6-amine hydrochloride] | 0.57 |
| CNCc1cn(S(=O)(=O)c2cccc(Cl)c2)c2cc(Nc3ccc(Cl)cc3C(F)(F)F)ccc12 [Example 151, N-(4-chloro-2-(trifluoromethyl)phenyl)-1-((3-chlorophenyl)sulfonyl)-3-((methylamino)methyl)-1H-indol-6-amine hydrochloride] | 0.51 |
| CNCc1cn(S(=O)(=O)c2cccc(Cl)c2)c2cc(Nc3ccc(OC(F)(F)F)cc3C)ccc12 [Example 154, 1-((3-chlorophenyl)sulfonyl)-N-(2-methyl-4-(trifluoromethoxy)phenyl)-3-((methylamino)methyl)-1H-indol-6-amine hydrochloride] | 0.48 |
| CNCc1cn(S(=O)(=O)c2cccc(Cl)c2)c2cc(Nc3ccc(OC(F)(F)F)cc3F)ccc12 [Example 155, 1-((3-chlorophenyl)sulfonyl)-N-(2-fluoro-4-(trifluoromethoxy)phenyl)-3-((methylamino)methyl)-1H-indol-6-amine hydrochloride] | 0.44 |
| CNCc1cn(S(=O)(=O)c2cccc(Cl)c2)c2cc(Nc3ccc(C)nc3F)ccc12 [Example 158, 1-((3-chlorophenyl)sulfonyl)-N-(2-fluoro-6-methylpyridin-3-yl)-3-((methylamino)methyl)-1H-indol-6-amine hydrochloride] | 0.41 |
| CNCc1cn(S(=O)(=O)c2cccc(Cl)c2)c2cc(Nc3ccc(C(F)(F)F)nc3Cl)ccc12 [Example 161, N-(2-chloro-6-(trifluoromethyl)pyridin-3-yl)-1-((3-chlorophenyl)sulfonyl)-3-((methylamino)methyl)-1H-indol-6-amine hydrochloride] | 0.46 |
| CNCc1cn(S(=O)(=O)c2cccc(OC)c2)c2cc(Nc3ccc(Cl)cc3F)ccc12 [Example 164, N-(4-chloro-2-fluorophenyl)-1-((3-methoxyphenyl)sulfonyl)-3-((methylamino)methyl)-1H-indol-6-amine hydrochloride] | 7.06 |
| CNCc1cn(S(=O)(=O)c2cccc(OC)c2)c2cc(Nc3ccc(OC)cc3F)ccc12 [Example 167, N-(2-fluoro-4-methoxyphenyl)-1-((3-methoxyphenyl)sulfonyl)-3-((methylamino)methyl)-1H-indol-6-amine hydrochloride] | 0.61 |

These reach a lower IC50. Values come first.

| IC50 [µM] | Compound |
| --- | --- |
| 0.06 | CNCc1cn(S(=O)(=O)c2cccc(F)c2)c2cc(Nc3ccc(C)cc3Cl)ccc12 [Example 137, N-(2-chloro-4-methylphenyl)-1-((3-fluorophenyl)sulfonyl)-3-((methylamino)methyl)-1H-indol-6-amine hydrochloride] |
| 0.19 | CNCc1cn(S(=O)(=O)c2cccc(F)c2)c2cc(Nc3ccc(OC(F)(F)F)cc3C)ccc12 [Example 140, 1-((3-fluorophenyl)sulfonyl)-N-(2-methyl-4-(trifluoromethoxy)phenyl)-3-((methylamino)methyl)-1H-indol-6-amine hydrochloride] |
| 0.15 | CNCc1cn(S(=O)(=O)c2cccc(Cl)c2)c2cc(Nc3ccc(C)cc3F)ccc12 [Example 146, 1-((3-chlorophenyl)sulfonyl)-N-(2-fluoro-4-methylphenyl)-3-((methylamino)methyl)-1H-indol-6-amine hydrochloride] |
| 0.09 | CNCc1cn(S(=O)(=O)c2cccc(Cl)c2)c2cc(Nc3ccc(C)cc3Cl)ccc12 [Example 147, N-(2-chloro-4-methylphenyl)-1-((3-chlorophenyl)sulfonyl)-3-((methylamino)methyl)-1H-indol-6-amine hydrochloride] |
| 0.01 | CNCc1cn(S(=O)(=O)c2cccc(Cl)c2)c2cc(Nc3ccc(F)cc3Cl)ccc12 [Example 149, N-(2-chloro-4-fluorophenyl)-1-((3-chlorophenyl)sulfonyl)-3-((methylamino)methyl)-1H-indol-6-amine hydrochloride] |
| 0.35 | CNCc1cn(S(=O)(=O)c2cccc(Cl)c2)c2cc(Nc3ccc(C(F)(F)F)cc3Cl)ccc12 [Example 152, N-(2-chloro-4-(trifluoromethyl)phenyl)-1-((3-chlorophenyl)sulfonyl)-3-((methylamino)methyl)-1H-indol-6-amine hydrochloride] |
| 0.38 | CNCc1cn(S(=O)(=O)c2cccc(Cl)c2)c2cc(Nc3ccc(C)c(F)c3F)ccc12 [Example 156, 1-((3-chlorophenyl)sulfonyl)-N-(2,3-difluoro-4-methylphenyl)-3-((methylamino)methyl)-1H-indol-6-amine hydrochloride] |
| 0.38 | CNCc1cn(S(=O)(=O)c2cccc(Cl)c2)c2cc(Nc3cccnc3OC)ccc12 [Example 157, 1-((3-chlorophenyl)sulfonyl)-N-(2-methoxypyridin-3-yl)-3-((methylamino)methyl)-1H-indol-6-amine hydrochloride] |
| 0.34 | CNCc1cn(S(=O)(=O)c2cccc(Cl)c2)c2cc(Nc3ccc(Cl)nc3Cl)ccc12 [Example 159, 1-((3-chlorophenyl)sulfonyl)-N-(2,6-dichloropyridin-3-yl)-3-((methylamino)methyl)-1H-indol-6-amine hydrochloride] |
| 0.02 | CNCc1cn(S(=O)(=O)c2cccc(OC)c2)c2cc(Nc3ccc(C)cc3F)ccc12 [Example 162, N-(2-fluoro-4-methylphenyl)-1-((3-methoxyphenyl)sulfonyl)-3-((methylamino)methyl)-1H-indol-6-amine hydrochloride] |
| 0.14 | CNCc1cn(S(=O)(=O)c2cccc(OC)c2)c2cc(Nc3ccc(C)cc3Cl)ccc12 [Example 163, N-(2-chloro-4-methylphenyl)-1-((3-methoxyphenyl)sulfonyl)-3-((methylamino)methyl)-1H-indol-6-amine hydrochloride] |
| 0.08 | CNCc1cn(S(=O)(=O)c2cccc(OC)c2)c2cc(Nc3ccc(Cl)cc3C(F)(F)F)ccc12 [Example 165, N-(4-chloro-2-(trifluoromethyl)phenyl)-1-((3-methoxyphenyl)sulfonyl)-3-((methylamino)methyl)-1H-indol-6-amine hydrochloride] |
| 0.34 | CNCc1cn(S(=O)(=O)c2cccc(OC)c2)c2cc(Nc3ccc(C(F)(F)F)cc3Cl)ccc12 [Example 166, N-(2-chloro-4-(trifluoromethyl)phenyl)-1-((3-methoxyphenyl)sulfonyl)-3-((methylamino)methyl)-1H-indol-6-amine hydrochloride] |
